In article PMC6222802 (Molecules : A Journal of Synthetic Chemistry and Natural …, 2018):

What was measured:
H22 tumor bearing mice = experiment: Antitumor activity and toxicity in vivo in H22 tumor bearing mice; parameters: species or system KM mice; details: for tumor inhibition rate: 50 mg/kg, administered for 6 days, H22 tumor bearing mice; for toxicity, organ-to-body weight ratios (organ indexes: thymus, brain, lung, heart, liver, kidney, spleen) compared with NS: 50 and 30 mg/kg (CP 50 mg/kg); for body weight change compared with NS group: even at the dose of 50 mg/kg
S180 cells [1] = experiment: cells; details: S-180, 48 h, read-out: IC50, S180
H22 cells [2] = experiment: cells; details: Mus musculus, H22, 48 h, read-out: IC50, H22
K562 cells = experiment: cells; details: Homo sapiens, K562, 48 h, read-out: IC50, K562
MCF-7 cells = experiment: cells; details: Homo sapiens, MCF7, 48 h, read-out: IC50, MCF-7
LoVo cells = experiment: cells; details: Homo sapiens, 48 h, read-out: IC50, LoVo
L929 cells = experiment: cells; details: Mus musculus, L929, 48 h, read-out: IC50, L929
H22 cells [3] = experiment: Cell cycle analysis by flow cytometry (PI); format: cell-based; details: 3 μM, 48 h; for Distribution (%) G2/M: control 12.26%; for percentage of G1-phase cells: control 15.32%; for percentage of S-phase cells: control 72.42%
Protocol: To determine whether the suppression of cell growth by the compounds was caused by a cell-cycle effect, we used a cell cycle analysis kit to detect the DNA content of cell nuclei.
H22 cells were treated with 7a–7e at 3 μM at 37 °C for 48 h and then cells were harvested, centrifuged, resuspended and fixed in 70% EtOH overnight at 4 °C. The fixed cells were digested by RNase A (0.25 mg·mL^−1) at 37 °C for 30 min, and stained with PI (50 μg·mL^−1) in the dark at room temperature for 30 min. The distribution of the cell cycle was analyzed by Flow Cytometer.

S180 cells [4] = system: S180 cells
H22 cells [5] = system: H22 cells

Structure (SMILES) | tumor inhibition rate (H22 tumor bearing mice) | toxicity, organ-to-body weight ratios (organ indexes: thymus, brain, lung, heart, liver, kidney, spleen) compared with NS (H22 tumor bearing mice) | IC50 (S180 cells [1]) | IC50 (H22 cells [2]) | IC50 (K562 cells) | IC50 (MCF-7 cells) | IC50 (LoVo cells) | IC50 (L929 cells) | body weight change compared with NS group (H22 tumor bearing mice) | Distribution (%) G2/M (H22 cells [3]) | percentage of G1-phase cells (H22 cells [3]) | percentage of S-phase cells (H22 cells [3]) | SI * selectivity index (SI) of S180 against L929 (S180 cells [4]) | SI ** selectivity index (SI) of H22 against L929 (H22 cells [5]) | kinetics of growth inhibition, S180 (S180 cells [4]) | kinetics of growth inhibition, H22 (H22 cells [5])
O=P1(N(CCCl)CCCl)NCCCO1 (stereo not shown) [CP, cyclophosphamide, reference compound] | 72.22% | significantly increase the liver and spleen indexes |  |  |  |  |  |  |  |  |  |  |  |  |  | 
O=C1CCC[C@@H]2[C@H]3CCCN4CCC[C@H](CN12)[C@@H]34 [Compound 1, Sophoridine, reference compound] |  |  | > 100 µM | > 100 µM | > 100 µM | > 100 µM | > 100 µM | > 100 µM |  |  |  |  |  |  |  | 
COC(=O)CCC[C@@H]1[C@H]2CCCN3CCC[C@H](CN1P(=O)(Oc1ccc(C)cc1)N(CCCl)CCCl)[C@@H]23 (stereo partly shown) [Compound 7a] | 46.95% | induced low toxicity | 2.89 ± 0.23 µM | 2.17 ± 0.13 µM | 27.1 ± 2.51 µM | 61.2 ± 2.21 µM | 62.5 ± 2.32 µM | 181 ± 4.56 µM | did not significantly cause body weight change | 15.15% | 32.02% | 52.83% | 62.51 | 83.10 |  | 
COC(=O)CCC[C@@H]1[C@H]2CCCN3CCC[C@H](CN1P(=O)(Oc1ccc(OC)cc1)N(CCCl)CCCl)[C@@H]23 (stereo partly shown) [Compound 7b] |  |  | 3.5 ± 0.35 µM | 2.65 ± 0.25 µM | 54.5 ± 2.32 µM | 38.9 ± 2.56 µM | 46.2 ± 2.32 µM | 104 ± 3.2 µM |  | 12.70% | 15.44% | 71.86% | 29.80 | 39.36 |  | 
COC(=O)CCC[C@@H]1[C@H]2CCCN3CCC[C@H](CN1P(=O)(Oc1ccc(Cl)cc1)N(CCCl)CCCl)[C@@H]23 (stereo partly shown) [Compound 7c] | 54.83% | induced low toxicity | 2.02 ± 0.17 µM | 1.01 ± 0.08 µM | 18.1 ± 1.34 µM | 31.9 ± 2.45 µM | 33.4 ± 2.45 µM | 162 ± 4.12 µM | did not significantly cause body weight change | 6.30% | 51.22% | 42.48% | 80.40 | 160.80 | concentration-dependent and time-dependent | concentration-dependent and time-dependent
COC(=O)CCC[C@@H]1[C@H]2CCCN3CCC[C@H](CN1P(=O)(Oc1ccc([N+](=O)[O-])cc1)N(CCCl)CCCl)[C@@H]23 (stereo partly shown) [Compound 7d] |  |  | 2.01 ± 0.14 µM | 1.8 ± 0.12 µM | 20.3 ± 2.05 µM | 34.6 ± 2.21 µM | 32.2 ± 2.21 µM | 105 ± 3.1 µM |  | 15.66% | 16.10% | 68.24% | 52.40 | 58.51 | concentration-dependent and time-dependent | concentration-dependent and time-dependent
COC(=O)CCC[C@@H]1[C@H]2CCCN3CCC[C@H](CN1P(=O)(Oc1ccccc1)N(CCCl)CCCl)[C@@H]23 (stereo partly shown) [Compound 7e] | 47.78% | induced low toxicity | 3.65 ± 0.25 µM | 1.85 ± 0.16 µM | 32.7 ± 2.56 µM | 86.6 ± 2.67 µM | 70 ± 2.78 µM | 139 ± 3.35 µM | did not significantly cause body weight change | 11.75% | 17.21% | 71.04% | 37.96 | 74.89 |  | 
COc1cccc2c1C(=O)c1c(O)c3c(c(O)c1C2=O)C[C@@](O)(C(=O)CO)C[C@@H]3O[C@H]1C[C@H](N)[C@H](O)[C@H](C)O1 [Dox, Doxorubicin, reference compound] |  |  | 29.2 ± 2.07 µM | 36.5 ± 2.56 µM | 17.2 ± 1.78 µM | 0.44 ± 0.08 µM | 0.15 ± 0.02 µM | 0.23 ± 0.08 µM |  |  |  |  |  |  |  | 
